According to patent US20170369444A1, “INHIBITORS OF HISTONE DEMETHYLASES” (Gilead Sciences, Inc., priority 2014, published 2017):
pIC50: −log10 of the molar value.

Key:
Type in all cases: biochemical
[1] = biological target: PHF8 (KDM7) (Homo sapiens, UniProt Q9UPP1); experiment: Histone lysine demethylase AlphaLISA assay, PHF8; conditions: in vitro enzyme, read-out: PHF8 IC50 (HDME Inhibition)
Experimental: (§1) Histone lysine demethylase AlphaLISA assays are performed to determine IC50 values. […] Assays are performed analogously to the protocol described by PerkinElmer (Roy et al. PerkinElmer Technical Note: AlphaLISA #12, April 2011).
(§2) Assays are performed analogously to the protocol described by PerkinElmer (Roy et al. PerkinElmer Technical Note: AlphaLISA #12, April 2011).
(§3) Enzymes (final assay concentration 0.1-2.5 nM) are dissolved in enzyme buffer and incubated for 10 min before 5 μL is added to 5 μL 3% DMSO solutions of compounds in enzyme buffer, incubated for another 10 minutes, before 5 μL substrate solution is added and the reaction mixture is incubated at room temperature. 10 μL acceptor beads, suspended Epigenetic Buffer (Perkin Elmer AL008) from stock, are added and the suspension is incubated in the dark at room temperature, before 10 μL suspension of streptavidin donor beads (Perkin Elmer 6760002) in Epigenetic Buffer is added. After incubation at room temperature in the dark the plates are read.
(§4) Substrate solution: Substrate (final assay concentration 50-200 nM), 50 mM Hepes (pH 7.4-8.0), 0.003% Tween-20, 0.1% BS, 25 μM L-Asc, 10 μM α-KG. Enzyme Buffer: 50 mM Hepes (pH 7.4-8.0), 0.003% Tween-20, 0.1% BSA; 5 μM (NH4)2Fe(SO4)2

[2] = biological target: T1, KDM5B (PLU-1) (Homo sapiens, UniProt Q9UGL1); experiment: Histone lysine demethylase AlphaLISA assay, KDM5B; conditions: in vitro enzyme, read-out: KDM5B IC50 (HDME Inhibition)
T1 construct: 1-809; host or cells: E. coli
T1 sequence (Q9UGL1 1-809): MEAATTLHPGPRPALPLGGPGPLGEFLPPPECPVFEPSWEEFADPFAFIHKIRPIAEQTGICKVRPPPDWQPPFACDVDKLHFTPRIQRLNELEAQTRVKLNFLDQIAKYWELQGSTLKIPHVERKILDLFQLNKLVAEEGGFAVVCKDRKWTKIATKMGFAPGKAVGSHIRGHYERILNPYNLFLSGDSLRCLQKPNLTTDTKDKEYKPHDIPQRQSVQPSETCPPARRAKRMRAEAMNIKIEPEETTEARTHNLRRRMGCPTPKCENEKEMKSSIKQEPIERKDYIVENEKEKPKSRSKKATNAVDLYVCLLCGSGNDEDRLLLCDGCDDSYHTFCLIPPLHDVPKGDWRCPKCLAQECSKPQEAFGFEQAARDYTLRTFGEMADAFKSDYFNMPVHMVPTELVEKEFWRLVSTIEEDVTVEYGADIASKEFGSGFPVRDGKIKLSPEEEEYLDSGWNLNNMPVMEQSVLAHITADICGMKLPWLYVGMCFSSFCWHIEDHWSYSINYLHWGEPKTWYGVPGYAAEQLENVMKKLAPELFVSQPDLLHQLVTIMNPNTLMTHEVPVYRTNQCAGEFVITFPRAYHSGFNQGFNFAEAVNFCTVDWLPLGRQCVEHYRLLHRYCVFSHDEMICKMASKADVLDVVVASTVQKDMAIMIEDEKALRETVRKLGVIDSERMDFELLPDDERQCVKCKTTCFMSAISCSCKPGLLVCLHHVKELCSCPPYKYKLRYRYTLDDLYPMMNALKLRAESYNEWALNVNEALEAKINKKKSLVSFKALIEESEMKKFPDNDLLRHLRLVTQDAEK
Experimental: as §1, §2, §3, §4

[3] = biological target: T2, KDM6A (UTX) (Homo sapiens, UniProt O15550); experiment: Histone lysine demethylase AlphaLISA assay, KDM6A; conditions: in vitro enzyme, read-out: KDM6A IC50 (HDME Inhibition)
T2 construct: 919-1401; host or cells: E. coli
T2 sequence (O15550 919-1401): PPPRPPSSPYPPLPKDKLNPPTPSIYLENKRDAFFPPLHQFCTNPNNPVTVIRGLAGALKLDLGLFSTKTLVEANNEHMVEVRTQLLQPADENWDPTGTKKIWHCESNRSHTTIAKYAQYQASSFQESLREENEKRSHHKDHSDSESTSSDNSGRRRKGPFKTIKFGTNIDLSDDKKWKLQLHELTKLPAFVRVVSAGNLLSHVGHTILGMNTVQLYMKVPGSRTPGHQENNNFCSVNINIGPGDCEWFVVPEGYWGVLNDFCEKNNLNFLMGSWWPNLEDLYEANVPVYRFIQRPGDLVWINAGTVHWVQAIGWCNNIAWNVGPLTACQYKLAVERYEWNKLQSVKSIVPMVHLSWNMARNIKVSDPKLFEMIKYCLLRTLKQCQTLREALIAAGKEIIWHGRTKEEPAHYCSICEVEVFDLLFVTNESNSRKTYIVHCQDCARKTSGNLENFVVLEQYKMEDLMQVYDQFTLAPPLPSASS
Experimental: as §1, §2, §3, §4

Chain of PHF8 (KDM7) (Q9UPP1 whole entry): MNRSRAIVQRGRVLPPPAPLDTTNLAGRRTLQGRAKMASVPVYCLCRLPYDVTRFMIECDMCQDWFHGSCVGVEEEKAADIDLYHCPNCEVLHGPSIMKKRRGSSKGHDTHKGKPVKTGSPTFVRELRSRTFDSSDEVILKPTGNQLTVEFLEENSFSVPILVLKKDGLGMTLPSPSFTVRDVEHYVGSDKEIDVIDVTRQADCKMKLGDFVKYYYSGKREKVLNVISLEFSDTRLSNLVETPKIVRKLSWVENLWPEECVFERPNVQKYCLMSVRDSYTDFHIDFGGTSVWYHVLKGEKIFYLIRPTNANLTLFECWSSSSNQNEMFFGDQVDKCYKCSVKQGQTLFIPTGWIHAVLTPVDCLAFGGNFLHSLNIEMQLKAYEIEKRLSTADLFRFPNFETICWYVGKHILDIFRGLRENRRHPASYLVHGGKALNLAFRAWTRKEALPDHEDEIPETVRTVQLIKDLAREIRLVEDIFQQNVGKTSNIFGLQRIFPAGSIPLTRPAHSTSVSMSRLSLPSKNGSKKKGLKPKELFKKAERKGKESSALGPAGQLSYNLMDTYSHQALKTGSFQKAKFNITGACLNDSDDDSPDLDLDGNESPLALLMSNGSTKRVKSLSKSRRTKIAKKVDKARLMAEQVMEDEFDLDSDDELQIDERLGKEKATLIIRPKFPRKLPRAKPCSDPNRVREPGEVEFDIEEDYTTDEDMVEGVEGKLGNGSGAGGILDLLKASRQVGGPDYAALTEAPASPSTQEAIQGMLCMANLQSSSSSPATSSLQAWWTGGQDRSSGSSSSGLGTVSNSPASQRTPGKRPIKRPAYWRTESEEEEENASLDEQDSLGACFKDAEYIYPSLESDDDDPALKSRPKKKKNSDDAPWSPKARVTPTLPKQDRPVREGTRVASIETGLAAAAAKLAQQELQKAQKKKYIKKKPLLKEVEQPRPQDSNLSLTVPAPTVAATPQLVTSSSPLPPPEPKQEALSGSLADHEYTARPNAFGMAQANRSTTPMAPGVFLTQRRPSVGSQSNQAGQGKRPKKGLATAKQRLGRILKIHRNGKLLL

| Compound | pIC50 [1] | pIC50 [2] | pIC50 [3] |
| --- | --- | --- | --- |
| C=CCN(CC=C)C(=O)[C@H](CCCCN(C)C(=O)NC)NCc1cc(C(=O)O)ccn1 [Compound 20, 2-({[(1S)-1-[bis(prop-2-en-1-yl)carbamoyl]-5-[methyl(methylcarba-moyl)amino]pentyl]amino}methyl)pyridine-4-carboxylic acid] | < 5.60 | 5.60 to 6.60 | < 5.60 |
| C=CCN(CC=C)C(=O)[C@H](CCS(C)(=O)=O)NCc1cc(C(=O)O)ccn1 [Compound 29, 2-({[(1S)-1-[bis(prop-2-en-1-yl)carbamoyl]-3-methanesulfonylpropyl]amino}methyl)pyridine-4-carboxylic acid] | < 5.60 | < 5.60 | – |
| CC(N[C@H](C)c1nccs1)c1cc(C(=O)O)ccn1 (stereo partly drawn) [Compound 30, 2-(1-{[(1R)-1-(1,3-thiazol-2-yl)ethyl]amino}ethyl) pyridine-4-carboxylic acid] | 5.60 to 6.60 | < 5.60 | < 5.60 |
| O=C(O)c1ccnc(CN2CCC[C@H]2C(=O)N2CCCCC2)c1 [Compound 55, 2-{[(2S)-2-(piperidine-1-carbonyl)pyrrolidin-1-yl]methyl}pyridine-4-carboxylic acid] | < 5.60 | < 5.60 | – |
| O=C(O)c1ccnc(CN2CCC[C@@H]2C(=O)N2CCCCC2)c1 [Compound 56, 2-{[(2R)-2-(piperidine-1-carbonyl)pyrrolidin-1-yl]methyl}pyridine-4-carboxylic acid] | 5.60 to 6.60 | < 5.60 | – |
| O=C(O)c1ccnc(CN2CCC[C@@H]2CO)c1 [Compound 57, 2-{[(2R)-2-(hydroxymethyl)pyrrolidin-1-yl]methyl}pyridine-4-carboxylic acid] | > 6.60 | > 6.60 | – |
| O=C(O)c1ccnc(CN2CCC[C@H]2CO)c1 [Compound 58, 2-{[(2S)-2-(hydroxymethyl)pyrrolidin-1-yl]methyl}pyridine-4-carboxylic acid] | 5.60 to 6.60 | > 6.60 | – |
| CC[C@H]1CCN(Cc2cc(C(=O)O)ccn2)[C@@H]1CO [Compound 65, 2-{[(2S,3S)-3-ethyl-2-(hydroxymethyl)pyrrolidin-1-yl]methyl}pyridine-4-carboxylic acid] | < 5.60 | < 5.60 | < 5.60 |
| CC(C)C[C@@H](COCc1ccccc1)NCc1cc(C(=O)O)ncn1 [Compound 89, 6-({[(2S)-1-(benzyloxy)-4-methylpentan-2-yl]amino}methyl) pyrimidine-4-carboxylic acid] | 5.60 to 6.60 | – | < 5.60 |

More lines, now with the values ahead:

| pIC50 [1] | pIC50 [2] | pIC50 [3] | Compound |
| --- | --- | --- | --- |
| 5.60 to 6.60 | < 5.60 | – | C=CCN(CC=C)C(=O)[C@@H](CCCCNCCC)NCc1cc(C(=O)O)ccn1 [Compound 3, 2-({[(1R)-1-[bis(prop-2-en-1-yl)carbamoyl]-5-(propylamino)pentyl]amino}methyl)pyridine-4-carboxylic acid] |
| < 5.60 | < 5.60 | < 5.60 | CC(N[C@@H](C)C(=O)NCc1ccccc1[N+](=O)[O-])c1cc(C(=O)O)ccn1 (stereo partly drawn) [Compound 8, 2-(1-{[(1S)-1-{[(2-nitrophenyl)methyl]carbamoyl}ethyl]amino}ethyl)pyridine-4-carboxylic acid] |
| < 5.60 | 5.60 to 6.60 | < 5.60 | C=CCN(CC=C)C(=O)[C@H](CCCCNC(=O)NC(C)(C)C)NCc1cc(C(=O)O)ccn1 [Compound 9, 2-({[(1S)-1-[bis(prop-2-en-1-yl)carbamoyl]-5-[(tert-butylcarbamoyl)amino]pentyl]amino}methyl) pyridine-4-carboxylic acid] |
| < 5.60 | 5.60 to 6.60 | < 5.60 | O=C(O)c1ccnc(CN2CC[C@H]2CO)c1 [Compound 64, 2-{[(2S)-2-(hydroxymethyl)azetidin-1-yl]methyl}pyridine-4-carboxylic acid] |
| < 5.60 | 5.60 to 6.60 | < 5.60 | CCNC(=O)C1CCCN(Cc2cc(C(=O)O)ccn2)C1 (centres unmarked) [Compound 74, 2-{[3-(ethylcarbamoyl)piper-idin-1-yl]methyl}pyridine-4-carboxylic acid] |
